The record followed here is ChEMBL document CHEMBL1144430, “Convergent synthesis and pharmacology of substituted tetrazolyl-2-amino-3-(3-hydroxy-5-methyl-4-isoxazolyl)propionic acid analogues” (J Med Chem, 2005).

Structures are written as SMILES. Bounds are passed on as bounds.

The target in one assay is Glutamate receptor 1 (Homo sapiens, UniProt P42261). The assay is described as follows: Binding affinity for ionotropic Glutamate receptor AMPA 1 expressed in Sf9 cells.
Another assay addresses Glutamate receptor 4 (Homo sapiens, UniProt P48058). Nature of the assay: Binding affinity for ionotropic Glutamate receptor AMPA 4 expressed in Sf9 cells.
A further assay has as its target Glutamate receptor 3 (Homo sapiens, UniProt P42263). The assay is described as follows: Binding affinity for ionotropic Glutamate receptor AMPA 3 expressed in Sf9 cells.
Assay [1] has as its target Glutamate receptor ionotropic, AMPA (Rattus norvegicus, UniProt P19490+P19491+P19492+P19493). The assay is described as follows: Displacement of [3H]AMPA from Ionotropic glutamate receptor of in rat brain synaptosomes. The class given is subcellular. A general note: Loss of bound radioactivity is the signal in a displacement assay; it reports binding, not function.
The target in assay [2] is Glutamate receptor ionotropic, kainate. The assay is described as follows: Displacement of [3H]KA from glutamate receptor of rat brain synaptosomes. In kind it is subcellular.
The target of assay [3] is Glutamate receptor ionotropic, kainate 2 (Homo sapiens, UniProt Q13002). Nature of the assay: Binding affinity for kainate Glutamate receptor GluR6 expressed in Sf9 cells.
Another assay deals with Glutamate receptor 2 (Homo sapiens, UniProt P42262). The assay is described as follows: Binding affinity for ionotropic Glutamate receptor AMPA 2 expressed in Sf9 cells.
Another assay addresses Glutamate NMDA receptor. The assay is described as follows: Displacement of [3H]-CGP- 39653 from N-methyl-D-aspartate glutamate receptor of rat brain synaptosomes. The class given is subcellular.
Assay [4] can be described thus: In vitro activity at Ionotropic glutamate receptor using cortical wedge assays.
Assay [5] has as its target Glutamate receptor ionotropic, kainate 1 (Homo sapiens, UniProt P39086). Nature of the assay: Binding affinity for kainate Glutamate receptor GluR5 expressed in Sf9 cells.

Sequence of Glutamate receptor ionotropic, kainate 1 (P39086 whole entry): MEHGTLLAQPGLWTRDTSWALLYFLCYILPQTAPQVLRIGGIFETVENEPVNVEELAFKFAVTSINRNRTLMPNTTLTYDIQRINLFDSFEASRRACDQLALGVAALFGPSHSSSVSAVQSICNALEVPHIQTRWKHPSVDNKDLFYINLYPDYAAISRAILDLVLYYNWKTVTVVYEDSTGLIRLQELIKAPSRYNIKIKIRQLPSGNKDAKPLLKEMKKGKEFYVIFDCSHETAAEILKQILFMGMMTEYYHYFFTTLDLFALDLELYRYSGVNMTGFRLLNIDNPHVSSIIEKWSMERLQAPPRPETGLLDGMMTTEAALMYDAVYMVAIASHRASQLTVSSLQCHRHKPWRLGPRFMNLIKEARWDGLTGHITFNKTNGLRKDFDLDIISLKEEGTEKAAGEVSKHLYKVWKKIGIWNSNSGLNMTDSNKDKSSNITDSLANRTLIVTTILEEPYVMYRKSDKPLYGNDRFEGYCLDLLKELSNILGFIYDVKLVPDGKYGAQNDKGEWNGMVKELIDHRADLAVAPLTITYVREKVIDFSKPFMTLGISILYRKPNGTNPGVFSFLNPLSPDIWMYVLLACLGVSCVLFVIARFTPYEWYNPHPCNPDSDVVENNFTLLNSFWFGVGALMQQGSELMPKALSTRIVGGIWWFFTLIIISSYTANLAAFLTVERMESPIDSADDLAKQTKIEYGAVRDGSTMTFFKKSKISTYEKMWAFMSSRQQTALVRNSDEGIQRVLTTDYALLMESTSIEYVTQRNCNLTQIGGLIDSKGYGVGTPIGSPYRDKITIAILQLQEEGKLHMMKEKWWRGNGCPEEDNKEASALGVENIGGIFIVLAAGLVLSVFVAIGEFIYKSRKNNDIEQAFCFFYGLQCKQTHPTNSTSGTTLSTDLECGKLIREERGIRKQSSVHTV
Sequence of Glutamate receptor 4 (P48058 whole entry): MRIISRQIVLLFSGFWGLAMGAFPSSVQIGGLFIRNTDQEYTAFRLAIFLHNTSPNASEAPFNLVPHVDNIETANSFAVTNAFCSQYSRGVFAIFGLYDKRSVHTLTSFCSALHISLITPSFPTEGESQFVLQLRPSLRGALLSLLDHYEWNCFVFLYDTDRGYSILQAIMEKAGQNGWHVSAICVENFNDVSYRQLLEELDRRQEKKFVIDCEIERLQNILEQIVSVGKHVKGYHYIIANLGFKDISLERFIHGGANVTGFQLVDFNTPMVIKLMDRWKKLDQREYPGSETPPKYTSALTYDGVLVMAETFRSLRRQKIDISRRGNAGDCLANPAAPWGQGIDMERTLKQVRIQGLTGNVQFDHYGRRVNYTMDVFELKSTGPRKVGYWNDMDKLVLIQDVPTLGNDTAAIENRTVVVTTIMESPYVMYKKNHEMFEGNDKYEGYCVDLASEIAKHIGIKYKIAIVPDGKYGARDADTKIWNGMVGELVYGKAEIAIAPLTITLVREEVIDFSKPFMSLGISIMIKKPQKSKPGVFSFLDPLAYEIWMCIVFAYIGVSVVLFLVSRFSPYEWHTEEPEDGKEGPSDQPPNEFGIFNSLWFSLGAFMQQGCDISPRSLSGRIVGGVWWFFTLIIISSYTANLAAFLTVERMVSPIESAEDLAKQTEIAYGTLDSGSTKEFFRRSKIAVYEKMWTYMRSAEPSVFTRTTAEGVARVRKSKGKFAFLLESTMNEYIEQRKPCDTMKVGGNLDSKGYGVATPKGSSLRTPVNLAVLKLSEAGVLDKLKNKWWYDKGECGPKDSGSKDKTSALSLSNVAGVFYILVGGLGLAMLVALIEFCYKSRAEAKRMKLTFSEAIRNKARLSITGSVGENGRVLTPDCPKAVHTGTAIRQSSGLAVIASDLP
Sequence of Glutamate receptor ionotropic, kainate 2 (Q13002 whole entry): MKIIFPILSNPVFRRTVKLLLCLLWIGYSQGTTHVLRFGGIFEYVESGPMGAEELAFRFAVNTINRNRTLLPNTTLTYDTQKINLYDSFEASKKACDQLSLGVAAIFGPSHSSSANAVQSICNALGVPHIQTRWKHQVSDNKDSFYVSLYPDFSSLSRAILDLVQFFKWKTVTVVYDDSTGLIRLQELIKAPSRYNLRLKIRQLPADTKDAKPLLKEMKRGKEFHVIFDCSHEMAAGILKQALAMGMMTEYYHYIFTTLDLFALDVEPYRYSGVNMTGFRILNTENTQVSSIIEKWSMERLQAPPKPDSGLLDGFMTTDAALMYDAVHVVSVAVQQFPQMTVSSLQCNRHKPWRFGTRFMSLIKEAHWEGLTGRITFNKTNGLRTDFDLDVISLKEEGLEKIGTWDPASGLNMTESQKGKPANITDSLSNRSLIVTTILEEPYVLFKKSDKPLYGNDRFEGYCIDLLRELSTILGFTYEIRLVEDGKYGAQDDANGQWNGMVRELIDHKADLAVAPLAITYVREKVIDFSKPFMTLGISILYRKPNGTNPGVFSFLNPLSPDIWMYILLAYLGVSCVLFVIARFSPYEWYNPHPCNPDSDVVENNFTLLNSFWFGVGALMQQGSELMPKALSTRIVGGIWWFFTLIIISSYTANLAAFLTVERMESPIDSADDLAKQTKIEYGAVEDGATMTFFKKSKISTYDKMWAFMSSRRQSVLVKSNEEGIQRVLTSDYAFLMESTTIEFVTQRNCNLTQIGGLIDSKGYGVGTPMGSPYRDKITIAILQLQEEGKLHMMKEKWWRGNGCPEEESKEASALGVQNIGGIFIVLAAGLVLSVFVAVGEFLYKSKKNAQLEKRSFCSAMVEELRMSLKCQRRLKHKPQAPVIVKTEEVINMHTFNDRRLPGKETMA
Sequence of Glutamate receptor 2 (P42262 whole entry): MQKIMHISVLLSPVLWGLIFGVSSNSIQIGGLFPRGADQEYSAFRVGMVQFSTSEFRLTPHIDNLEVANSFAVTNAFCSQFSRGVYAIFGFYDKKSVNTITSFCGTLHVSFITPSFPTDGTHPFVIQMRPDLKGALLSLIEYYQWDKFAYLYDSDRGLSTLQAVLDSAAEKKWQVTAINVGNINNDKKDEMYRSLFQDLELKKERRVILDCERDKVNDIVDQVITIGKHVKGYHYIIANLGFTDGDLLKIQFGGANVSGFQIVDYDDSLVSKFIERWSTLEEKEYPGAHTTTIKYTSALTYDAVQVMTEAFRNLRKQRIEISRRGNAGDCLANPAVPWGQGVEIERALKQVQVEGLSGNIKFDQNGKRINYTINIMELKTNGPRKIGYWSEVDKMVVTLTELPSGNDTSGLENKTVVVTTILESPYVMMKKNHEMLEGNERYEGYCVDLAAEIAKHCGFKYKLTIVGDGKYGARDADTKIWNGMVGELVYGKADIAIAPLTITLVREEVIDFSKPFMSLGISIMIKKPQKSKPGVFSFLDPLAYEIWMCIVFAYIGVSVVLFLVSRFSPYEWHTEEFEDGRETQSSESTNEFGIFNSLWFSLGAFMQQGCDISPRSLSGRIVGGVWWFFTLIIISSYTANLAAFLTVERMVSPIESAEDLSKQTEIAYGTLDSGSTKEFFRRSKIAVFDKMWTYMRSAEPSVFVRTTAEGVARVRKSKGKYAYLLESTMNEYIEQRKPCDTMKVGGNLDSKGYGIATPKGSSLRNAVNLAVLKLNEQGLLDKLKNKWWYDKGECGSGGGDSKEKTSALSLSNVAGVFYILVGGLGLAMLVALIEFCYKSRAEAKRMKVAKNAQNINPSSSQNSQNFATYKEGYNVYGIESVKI
Sequence of Glutamate receptor 1 (P42261 whole entry): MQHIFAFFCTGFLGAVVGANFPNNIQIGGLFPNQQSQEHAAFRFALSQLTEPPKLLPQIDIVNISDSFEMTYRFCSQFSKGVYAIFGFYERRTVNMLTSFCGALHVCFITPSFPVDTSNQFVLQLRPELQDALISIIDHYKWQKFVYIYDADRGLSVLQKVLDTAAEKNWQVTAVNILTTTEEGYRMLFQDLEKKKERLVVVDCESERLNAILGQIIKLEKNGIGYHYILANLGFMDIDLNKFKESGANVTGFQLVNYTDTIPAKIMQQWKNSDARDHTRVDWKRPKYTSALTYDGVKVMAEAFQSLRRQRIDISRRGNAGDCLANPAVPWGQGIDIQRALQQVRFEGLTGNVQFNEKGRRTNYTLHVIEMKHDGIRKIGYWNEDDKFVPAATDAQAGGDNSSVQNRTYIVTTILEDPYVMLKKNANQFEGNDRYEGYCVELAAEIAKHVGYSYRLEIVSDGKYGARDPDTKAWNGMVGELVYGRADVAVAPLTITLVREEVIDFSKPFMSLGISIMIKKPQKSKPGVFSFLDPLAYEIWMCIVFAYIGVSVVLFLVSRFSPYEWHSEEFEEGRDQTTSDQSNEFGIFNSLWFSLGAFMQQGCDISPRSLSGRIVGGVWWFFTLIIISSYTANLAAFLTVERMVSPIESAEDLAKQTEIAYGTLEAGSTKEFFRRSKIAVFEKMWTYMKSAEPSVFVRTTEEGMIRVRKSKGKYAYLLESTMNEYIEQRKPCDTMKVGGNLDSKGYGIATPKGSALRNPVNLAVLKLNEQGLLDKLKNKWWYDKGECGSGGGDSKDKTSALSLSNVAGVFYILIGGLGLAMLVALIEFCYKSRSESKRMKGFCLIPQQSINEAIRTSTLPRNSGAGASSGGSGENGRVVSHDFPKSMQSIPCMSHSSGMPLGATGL

For `CC(C)n1nnc(-c2onc(O)c2CC(N)C(=O)O)n1` (centres undefined), the Ki at Glutamate receptor 1 was 10 µM; on Glutamate receptor 4 it was 2.35 µM; at Glutamate receptor 3, 3.71 µM; in [3], above 100 µM; on Glutamate receptor 2, 2.93 µM; at Glutamate NMDA receptor, above 100 µM. Besides, the inhibition constant (Ki) in [5] stood at 34.2 µM. Further, the results for the IC50 in assay [1] and in [2] were 6.2 µM and above 100 µM, respectively. Also, in assay [4], the concentration for a half-maximal effect (EC50) amounted to 71 µM.
For the compound `CCn1nnnc1-c1onc(O)c1CC(N)C(=O)O` (centres undefined), the IC50 in assay [1] was 27 µM; in assay [2] it was above 100 µM. The Ki on Glutamate NMDA receptor is above 100 µM.
In the case of `Cn1nnnc1-c1onc(O)c1CC(N)C(=O)O` (centres undefined), the figures for the IC50 in [1] and in assay [2] were 54 µM and above 100 µM, respectively. Besides, the Ki at Glutamate NMDA receptor was above 100 µM. This compound also came in with an EC50 in assay [4] above 1000 µM.
As to `CC(C)n1nnnc1-c1onc(O)c1CC(N)C(=O)O` (centres undefined), the IC50 in assay [1] and in assay [2] was above 100 µM in each case. This compound also gave a Ki on Glutamate NMDA receptor above 100 µM.
Turning to `Cn1nnc(-c2o[nH]c(=O)c2C[C@H](N)C(=O)O)n1`, in assay [1], the IC50 is 0.009 µM. Besides, the Ki in [3] was 18.8 µM; on Glutamate NMDA receptor it was above 1000 µM; in assay [5], 0.081 µM.
In the case of `CCn1nnc(-c2o[nH]c(=O)c2CC(N)C(=O)O)n1` (centres undefined), the Ki was 0.145 µM on Glutamate receptor 1; 0.0444 µM at Glutamate receptor 4; 0.0448 µM at Glutamate receptor 3; above 100 µM in assay [3]; 0.0802 µM at Glutamate receptor 2; above 100 µM on Glutamate NMDA receptor. In [5], the affinity corresponds to a Ki of 2.92 µM. The IC50 is 0.134 µM in assay [1] and above 100 µM in [2]. This compound also registered an EC50 in [4] of 3.5 µM.
For `CCCn1nnnc1-c1onc(O)c1CC(N)C(=O)O` (centres undefined), the IC50 in [1] and in assay [2] was above 100 µM in each case. Moreover, the Ki on Glutamate NMDA receptor was above 100 µM.
Turning to `CCCn1nnc(-c2onc(O)c2CC(N)C(=O)O)n1` (centres undefined), the Ki on Glutamate receptor 1 is 5.15 µM; on Glutamate receptor 4 it was 0.732 µM; on Glutamate receptor 3 it was 1.18 µM; in [3], above 100 µM; at Glutamate receptor 2 it was 1.61 µM; on Glutamate NMDA receptor, above 100 µM. For the same compound, the Ki in assay [5] turned out to be 5.45 µM. In addition, the IC50 in [1] was 2.5 µM; in assay [2], above 100 µM. In [4], the response was half-maximal at 32 µM (EC50).
In the case of `Cn1nnc(-c2onc(O)c2CC(N)C(=O)O)n1` (racemic), in assay [1], the IC50 worked out at 0.027 µM. Further, the Ki on Glutamate NMDA receptor was above 100 µM.

The Ki is the equilibrium dissociation constant of an inhibitor or competing ligand from its target. Read a low Ki as higher affinity. A word on the IC50: it is the midpoint of a concentration-inhibition curve. Low values mean inhibition by little substance, high ones a need for much substance. Broadly, the EC50 is the concentration at which the effect is half-maximal. A higher EC50 goes with a less potent agent.
